Reference: patent publication US20190298772A1, “COMBINATION THERAPY OF A T CELL-BASED THERAPY AND A BTK INHIBITOR” (Juno Therapeutics, Inc., priority 2016, published 2019)

Columns and labels:
anti-CD19 CAR T cells [1] = assay: Cytolytic activity of anti-CD19 CAR T cells co-cultured with K562-CD19 target cells in the presence of ibrutinib; format: cell-based, human
From the text: (§1) To generate CAR-expressing T cells, T cells were isolated by immunoaffinity-based enrichment from three healthy human donor subjects, and cells from each donor were activated and transduced with a viral vector encoding an anti-CD19 CAR. The CAR contained an anti-CD19 scFv, an Ig-derived spacer, a human CD28-derived transmembrane domain, a human 4-1BB-derived intracellular signaling domain and a human CD3 zeta-derived signaling domain. The nucleic acid construct encoding the CAR also included a truncated EGFR (tEGFR) sequence for use as a transduction marker, separated from the CAR sequence by a self-cleaving T2A sequence.
(§2) CAR-expressing CD4+ and CD8+ cells were mixed 1:1 for each donor, individually, and the pooled cells for each donor assessed in vitro under various conditions.
CAR T cells generated as described above were plated in triplicate on Poly-D-Lysine plates and then co-cultured with ibrutinib-resistant CD19-expressing target cells (K562 cells transduced to express CD19, K562-CD19) at an effector to target (E:T) ratio of 2.5:1. The target cells were labeled with NucLight Red (NLR), to permit tracking of target cells by microscopy.

[2] = test system: CD19+Nalm-6 disseminated tumor line; assay: Nalm-6 disseminated tumor xenograft mouse model, ibrutinib by daily oral gavage; format: in vivo, NOD/Scid/gc−/− (NSG) mice
From the text: On day zero (0), NSG mice were intravenously injected with 5×10^5 Nalm-6 cells expressing firefly luciferase. […] To permit assessment of the effect of a combination therapy with the inhibitor, a suboptimal dose of anti-CD19 CAR T cells from two different donors (generated by transducing cells derived from samples of human donor subjects essentially as described above) were i.v. injected into each mouse at a concentration of 5×10^5 CAR+ T cells per mouse at day 5. […] Eight (N=8) mice per group were monitored.
Following treatment as described above, tumor growth over time was measured by bioluminescence imaging and the average radiance (p/s/cm^2/sr) was measured. Survival of treated mice also was assessed over time.

CAR-expressing T cells = assay: RNA-Seq molecular signature of CAR-expressing T cells after 18 days serial stimulation; format: cell-based, human; details: day 18
Description: RNA isolation was performed using the RNEasy Micro Kit (Qiagen). Samples were sequenced and RNASeq reads were mapped to the human genome (GRCh38) and aligned to the GENCODE release 24 gene model. […] Differentially expressed genes were identified by imposing a log2 fold change cutoff of 0.5 and a Benjamini-Hochberg adjusted false discovery rate (FDR) cutoff of 0.05.

anti-CD19 CAR T cells [3] = assay: TH1 phenotype and marker flow cytometry of CAR T cells from serial restimulation; format: cell-based, human
Description: (§3) The ability of cells to expand ex vivo following repeated stimulations in some aspects can indicates capacity of CAR-T cells to persist (e.g., following initial activation) and/or is indicative of function and/or fitness in vivo (Zhao et al. (2015) Cancer Cell, 28:415-28). Anti-CD19 CAR+ T cells generated as described above were plated in triplicate at 100,000 cells/well on 96 well Poly-D-Lysine coated plates, and irradiated target cells (K562-CD19) were added at an effector to target ratio of 2.5:1. […] A total of 7 rounds of stimulation during a 25 day culture period were carried out.
A serial restimulation assay was performed as described above and cells were harvested at various times and analyzed by flow cytometry to assess percentage of TH1-phenotype (assessed as CD4+CXCR3+CRTH2−) T cells or TH2-phenotype (assessed as CD4+CXCR3−CRTH2+).

anti-CD19 CAR T cells [4] = assay: Serial restimulation assay of anti-CD19 CAR+ T cells with K562-CD19 target cells; format: cell-based, human
From the text: as §1, §2, §3

anti-CD19 CAR T cells [5] = assay: Expression of CAR-T cell surface markers by flow cytometry after stimulation with irradiated K562-CD19 cells; format: cell-based, human
From the text: as §1, §2
CAR-T cells generated as described above were plated at 100,000 cells/well on 96 well Poly-D-Lysine coated plates. Irradiated K562-CD19 target cells were added at an effector to target ratio of 2.5:1. […] Cells were harvested at 1, 2, 3, and 4 days, and were analyzed by flow cytometry for T cell activation and differentiation surface markers CD69, CD107a, PD-1, CD25, CD38, CD39, CD95, CD62L, CCR7, CD45RO and for truncated EGFR (a surrogate marker for CAR-transduced cells).

anti-CD19 CAR T cells [6] = assay: Cytokine production in supernatants of CAR-T / K562-CD19 co-cultures (MSD); format: cell-based, human
From the text: as §1, §2
CAR-T cells generated as described above were plated at 100,000 cells/well on 96 well Poly-D-Lysine coated plates to which irradiated target cells (K562-CD19) were added at an effector to target ratio of 2.5:1. […] Culture supernatants were harvested every 24 hrs at days 1, 2, 3 and 4, and IFNγ, IL-2, TNFα, IL-4 and IL-10 were measured from the culture supernatants using cytokine kits from Meso Scale Discovery (MSD).

[7] = test system: CD19+Nalm-6 disseminated tumor line; assay: Nalm-6 disseminated tumor xenograft mouse model, ibrutinib in drinking water; format: in vivo, NSG mice
Description: (§4) NSG mice described in Example 2 were intravenously injected on day 0 with 5×10^5 Nalm-6 cells expressing firefly luciferase. […] To permit assessment of the effect of a combination therapy with the inhibitor, a suboptimal dose of anti-CD19 CAR T cells was i.v. injected into the mice at 5×10^5/mouse at day 5. As a control, mice were administered the vehicle control without administration of the CAR-T cells or inhibitor.

anti-CD19 CAR T cells [8] = assay: Gene expression analysis (Nanostring Immune V2 panel) after 18 days serial stimulation; format: cell-based, human; details: 50 nM or 500 nM; day 18
From the text: At day 18 after serial stimulation, RNA was isolated from anti-CD19 CAR T cells and Nanostring Immune V2 panel tests were run across 594 genes. The log 2 (fold change) of each gene was plotted against the −log 10(Raw p-value) derived from ANOVA tests of unscaled housekeeping gene normalized to count data for treatment versus control.

anti-CD19 CAR+ T cells [9] = assay: Pharmacokinetic analysis of CAR+ T cells and tumor cells in blood, bone marrow and spleen; format: in vivo, NSG mice
Description: as §4
Samples were analyzed to assess presence and levels of CAR T cells (based on expression of the surrogate marker using an anti-EGFR antibody) and/or tumor cells at days 7, 12, 19 and 26 post CAR+ T cell transfer.

[10] = test system: anti-CD19 CAR-T cells from DLBCL subjects; assay: Serial restimulation and cytolytic function of anti-CD19 CAR-T cells manufactured from DLBCL patients; format: cell-based, human
From the text: Anti-CD19 CAR-T cells were generated substantially as described in Example 1, except that T cells were isolated from two different human subjects having diffuse large B-cell lymphoma (DLBCL). […] Cells were subjected to serial restimulation over a 21 day culture period and monitored for cell expansion and cytotoxic activity.

anti-CD19 CAR+ T cells [11] = assay: Ex vivo immunophenotyping (t-SNE) of CAR+ T cells from bone marrow at day 12; format: in vivo, NSG mice; details: day 12 post CAR T transfer
Description: as §4
Cells were assessed for surface markers CD44, CD45RA, CD62L, CD154, CXCR3, CXCR4, and PD-1 by flow cytometry and T-distributed stochastic neighbor embedding (t-SNE) high dimensional analysis was performed using FlowJo software. […] FACs histograms showing the individual expression profiles of CD4, CD8, CD62L, CD45RA, CD44 and CXCR3 from the 4 gated t-SNE in FIG. 8B overlaid on the expression of the total population (shaded) is shown in FIG. 8C.

C=CC(=O)N1CCC[C@@H](n2nc(-c3ccc(Oc4ccccc4)cc3)c3c(N)ncnc32)C1 [ibrutinib]
cytolytic function of anti-CD19 CAR T cells (anti-CD19 CAR T cells [1]; all concentrations tested (5000, 500, 50, 5, 0.5 nM) during co-culture): did not inhibit the cytolytic function
target cell killing (anti-CD19 CAR T cells [1]; one donor, P<0.0001): modestly increased target cell killing
cytolytic activity of anti-CD19 CAR-expressing T cells (target cell killing normalized to untreated control, AUC) (anti-CD19 CAR T cells [1]; two donors, up to supra-physiological 500 nM, E:T 2.5:1, 4 days): did not significantly impact cytolytic activity
median survival vs CAR T + vehicle ([2]; ibrutinib 25 mg/kg qd P.O. plus suboptimal anti-CD19 CAR T cells, FIG. 6C): increased median survival
tumor growth vs CAR-T cells and vehicle ([2]; ibrutinib 25 mg/kg qd P.O. plus suboptimal dose anti-CD19 CAR T cells): significantly decreased tumor growth
tumor burden (average radiance) vs vehicle ([2]; ibrutinib alone, 25 mg/kg qd P.O., no CAR-T cells): no effect on tumor burden
survival at greater time points vs CAR T and vehicle ([2]; ibrutinib plus CAR T, two donors, FIG. 6D, p<0.001): significantly increased survival
gene expression changes (CAR-expressing T cells; 50 nM): not significant, similar trends
number of protein-coding genes with significantly altered expression (CAR-expressing T cells; 500 nM, FDR<0.05, absLog2FC>0.5): 23
expression of HES6, HIC1, LZTFL1, NRIP1, CD38 and RARRES3 (CAR-expressing T cells; ibrutinib vs control): downregulation
expression of MSC (CAR-expressing T cells; ibrutinib vs control): upregulation
expression of SELL/CD62L (CAR-expressing T cells; ibrutinib vs control): increases
expression of granzyme A and CD38 (CAR-expressing T cells; ibrutinib vs control): decreases
percentage of TH1 cells (anti-CD19 CAR T cells [3]; 500 nM, 18-day serial stimulation, P<0.01): further enhanced the percentage of TH1 cells
additional CAR T activation or memory markers (anti-CD19 CAR T cells [3]; CAR T cells from serial stimulation assay): No significant effects
percentage of CAR+ T cells with TH1 phenotype (CD4+CXCR3+CRTH2−) (anti-CD19 CAR T cells [3]; after serial stimulation, greater with increasing concentrations): increase the percentage
CD62L expression by flow cytometry (anti-CD19 CAR T cells [4]; after 18 days serial stimulation, donors 2 and 3): significant increase in CD62L expression
cell numbers and population doublings (anti-CD19 CAR T cells [4]; day 18, 50 and 500 nM, two of three donors): enhanced cell numbers and population doublings
cell counts (anti-CD19 CAR T cells [4]; donor 3, day 18, highest concentration tested): Non-significant, increased cell counts
expression of truncated EGFR, CD25, CD38, CD39, CD95, CD62L, CCR7, CD45RO (anti-CD19 CAR T cells [5]; 5000, 500, 50, 5 and 0.5 nM, 3 donors, up to 4 days): no significant effect
phenotype as central (TCM) or effector (TEM) memory subsets (CCR7, CD45RA) (anti-CD19 CAR T cells [5]; over four days after stimulation): did not affect the phenotype
expression levels of CD69, CD107a or PD-1 on CD4+ or CD8+ cells (anti-CD19 CAR T cells [5]; seen at highest (supraphysiological) concentration): subtle decrease
IFN-γ and IL-2 production (anti-CD19 CAR T cells [6]; 50 nM ibrutinib): some increase
cytokine production (anti-CD19 CAR T cells [6]; 50 nM ibrutinib, some donors): modestly increased cytokine production
cytokine concentrations (anti-CD19 CAR T cells [6]; physiological concentrations of ibrutinib): did not significantly decrease cytokine concentrations
tumor growth vs CAR T with vehicle ([7]; ibrutinib 25 mg/kg/day in drinking water plus CAR T): significantly (P<0.001) decreased tumor growth
median survival vs CAR T + vehicle ([7]; ibrutinib 25 mg/kg/day in drinking water plus suboptimal anti-CD19 CAR-T cells, p<0.001): increased median survival
gene expression across 594 genes (anti-CD19 CAR T cells [8]): did not significantly alter gene expression
tumor cells in blood, bone marrow or spleen vs vehicle (anti-CD19 CAR+ T cells [9]; CAR+ cell treatment combined with ibrutinib): significantly fewer tumor cells
circulating CAR+ T cells vs CAR+ T cells and vehicle (anti-CD19 CAR+ T cells [9]; blood, days 7-26 post transfer, ibrutinib in drinking water): significant increase in circulating CAR+ T cells
number of cells in the blood (anti-CD19 CAR+ T cells [9]; day 19 post CAR-T cell transfer, p<0.05): significant increase in the number of cells in the blood
cytolytic activity ([10]; 50 nM, after 16 days, one patient, P<0.01): increase in cytolytic activity
cytolytic function ([10]; 500 nM, after 16 days serial stimulation, each subject): increase in cytolytic function
proliferation (cell doublings) of patient-derived CAR T cells ([10]; 50 and 500 nM, 21 day culture, two DLBCL patients): did not inhibit the proliferation
population 4 (CD4+CD44hi CXCR3 CD45RAhi CD62Lhi) as share of CAR-T cells (anti-CD19 CAR+ T cells [11]; bone marrow, ibrutinib-treated animals): 15.2%
populations 2 and 4 in bone marrow vs control mice (anti-CD19 CAR+ T cells [11]; CAR T plus ibrutinib): increase
